Data set [1] has as its target T1, Human CysLT1 (LTD4) (Homo sapiens, UniProt Q9Y271).
T1 construct: Eurofins Cerep-Panlabs (France), contract assay
T1 sequence (Q9Y271 1-337): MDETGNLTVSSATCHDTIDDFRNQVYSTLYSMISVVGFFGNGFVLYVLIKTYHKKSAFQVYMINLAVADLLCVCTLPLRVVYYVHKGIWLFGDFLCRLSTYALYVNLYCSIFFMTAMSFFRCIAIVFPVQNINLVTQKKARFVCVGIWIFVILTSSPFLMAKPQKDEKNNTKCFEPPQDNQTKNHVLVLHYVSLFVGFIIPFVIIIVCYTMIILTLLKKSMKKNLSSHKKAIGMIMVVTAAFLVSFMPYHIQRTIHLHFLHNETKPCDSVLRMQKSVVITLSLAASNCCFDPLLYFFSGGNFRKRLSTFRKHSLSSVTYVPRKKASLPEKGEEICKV
The data set is described as follows: Human CysLT1 (LTD4) antagonist effect cellular functional assay (Ca2+ fluorescence, Eurofins Cerep-Panlabs). The format is cell-based. The settings on record: antagonist effect, 0.1 nM LTD4; read-out: CysLT1R IC50. How it is done: Human CysLT1 (LTD4) (h) (antagonist effect) Cellular Functional Assay. These assays were performed at Eurofins Cerep-Panlabs (France). The cells were suspended in DMEM buffer (Invitrogen) and then distributed in microplates at a density of 3.104 cells/well. […] Thereafter, the assay plates are positioned in a microplate reader (CellLux, PerkinElmer), which was used for the addition of the test compound or HBSS buffer, then 5 min later, 0.1 nM LTD4 or HBSS buffer (basal control), and measured the changes in fluorescence intensity, which varies proportionally to the free cytosolic Ca^2+-ion concentration.

A short description of data set [2]: Metabolic stability in liver S9 fraction. The data set is classed as in vitro ADME. On the procedure:
Metabolic Stability. All compounds were tested at the final concentration of 1 µM in a 50 mM potassium phosphate buffer (pH 7.4) containing 1% DMSO as vehicle. For microsomes assay, the incubation mixtures contained 0.15 mg of Human liver microsomes (Sigma-Aldrich, St. Louis, MO, United States), 5 mM MgCl2, 1 mM NADPH, 5 mM glucose 6-phosphate, 0.4 U mL^−1 glucose 6-phosphate dehydrogenase. For S9 fraction analysis, the buffer contained 0.15 mg of S9 proteins (Sigma-Aldrich, St. Louis, MO, United States), 0.3 mM NADPH, 5.6 mM glucose-6-phosphate, 0.6 units/mL glucose-6-phosphate dehydrogenase, 5.8 mM UDP-glucuronic acid, 0.05 mM acetyl-CoA, 0.5 mM dithiothreitol, 0.5 mM 3′-phosphoadenosine 5′-phosphosulfate, 1 mM glutathione, 0.2 mM acetyl carnitine, 4 units/mL carnitine acetyl transferase, 0.5 mM glycine, and 0.5 mM taurine.
Samples were kept at 37°C and aliquots were removed at 0, 5, 15, 30, 45, 60, 90, 120, 150 min after protein additions. The reaction was stopped by adding 200 µL of ice-cold acetonitrile to withdrawn aliquots. After 2 h, samples were centrifuged for 10 min at 10,000 rpm, and supernatants were subjected to LC-MS/MS analysis. […]
In vitro intrinsic clearance (Clint expressed as µL/min/mg) was calculated according to the following formula: Clint = Vx 0.693/t1/2 were V = volume of reaction (µL)/protein in the incubation (mg). […]

Data set [3] deals with C57BL/6J male mice fed HFD-F. In words: HFD-F mouse model of NAFLD/NASH (body weight, OGTT, biochemistry, histopathology, adipose tissues). The data set is classed as in vivo. The conditions noted are these: 30 mg/kg/day by gavage. The source says: C57BL/6J male mice were fed a high fat diet (HFD) containing 59 KJ% fat plus 1% cholesterol, w/o sugar (ssniff ® EF R/M acc. D12330 mod. 22,7 ME/kg) and fructose (HFD-F) in drinking water (42 g/L), or normal chow diet for 61 days. Food intake was estimated as the difference of weight between the offered and the remnant amount of food at 3-days intervals. The food was provided as pressed pellets and the residual spillage was not considered. After 7 days, HFD-F mice were randomized to receive HFD-F alone or in combination with compound 2 (30 mg/kg/day) by gavage until the end of the experiment. Doses of each agent were chosen according to previously published data. Mice were housed under controlled temperature (22°C) and photoperiods (12:12-h light/dark cycle), allowed unrestricted access to standard mouse chow and tap water. The experimental protocol was approved by the Animal Care and Use Committee of the University of Perugia and by the Italian Minister of Health and Istituto Superiore di Sanità (Italy) and was in agreement with the European guidelines for use of experimental animals (permission n. 583/2017-PR). The general health of the animals was monitored daily by the Veterinarian in the animal facility. At the day of sacrifice, fed mice were deeply anesthetized with a mixture of tiletamine hypochloride and zolazepam hypochloride/xylazine at a dose of 50/5 mg/kg and sacrificed before 12 a.m.
Body weight and body length (nose-to-anus or nose–anus length) were measured in anesthetized mice at the time of sacrifice and were used to calculate the body mass index (BMI) (=body weight (g)/length^2 (cm^2)) and the Lee index (=cube root of body weight (g)/nose-to-anus length (cm)).
AST, ALT, total- and HDL-cholesterol, and triglycerides plasmatic levels were quantified using an automated clinical chemistry analyzer (Cobas, Roche).
After 8 weeks of HFD-F mice were fasted overnight and orally administered glucose (1.5 g/kg body weight) for OGTT. The blood glucose concentrations were measured at 0, 15, 30, 60, 90, and 120 min after feeding or injection using a portable glucose meter (Accu-Check Go, Roche).
Temperature of brown adipose tissue (BAT) was recorded through the study using a noninvasive technology. Briefly, mice were maintained at 25°C and the thermal images were taken by a FLIR E6 thermal imaging camera (FLIR System, Wilsonville, Oregon) and the surface temperature quantified by the FLIR Tools.
For histological examination, portions of the right and left liver lobes were fixed in 10% formalin, embedded in paraffin, sectioned and stained with Sirius red and/or Hematoxylin/Eosin (H&E), for morphometric analysis ([Fiorucci et al., 2004]). NASH severity (steatosis, hepatocytes ballooning, lobular inflammation, and portal inflammation) was scored in H&E-stained cross sections using an adapted grading system of human NASH as described previously ([Carino et al., 2017b]).

“And” between values parts separate entries of the source, which are not always exact repeats. Equal values may be shown once.

In general, IC50 refers to the point on the concentration scale where inhibition reaches its midpoint. Usually microsomal CLint stands for the capacity of the preparation to metabolise the compound, expressed as a volume cleared per time. Low values mean greater metabolic stability, high ones faster metabolism.

As for `O=C(O)c1cccc(-c2ccc(OCc3ccc4ccccc4n3)cc2)c1` [Compound 2, 4'-(quinolin-2-ylmethoxy)-[1,1′-biphenyl]-3-carboxylic acid], in data set [1], the IC50 is 5.6 µM and 5.67 µM. For the same molecule, the microsomal CLint at 1 µM in data set [2] (pH 7.4) was 6 µL/min/mg. Besides, the half-life at 1 µM in data set [2] (pH 7.4, read-out: S9 fraction t1/2) was 6.42 h. In data set [3], the ALT plasma levels entry is given as “reduced”, the AST plasma levels entry is listed as “reduced”, the “body mass index (BMI)” value is given as “reduced” and the eWAT weight entry was “reduced”. In data set [3], the “insulin sensitivity (OGTT)” value is given as “increased”; the “liver fibrosis and collagen deposition (Sirius red)” value is recorded as “robustly attenuated”; the “liver steatosis and hepatocytes ballooning (H&E)” value was “highly effective in reversing these features”; the liver weight result is “reversed the effect exerted by the diet”. Besides, in data set [3], the proatherogenic lipid profile result is reported as “partially reversed”, the “ratio of BAT weight/body weight” value is listed as “reduced”, the “ratio of eWAT weight/body weight” value is “reduced these changes” and the “volume of BAT” value was “reduced”. In addition, the body weight gain result in data set [3] (54 days) was “reduced”.

Source of the values: publication PMC9085577, “Discovery of a Potent and Orally Active Dual GPBAR1/CysLT1R Modulator for the Treatment of Metabolic Fatty Liver Disease” (Frontiers in Pharmacology, 2022).
